Data as given in publication PMC5841658, “Anti-cancer characteristics and ototoxicity of platinum(II) amine complexes with only one leaving ligand” (PLoS ONE, 2018).
Values joined by “and” are separate entries in the source; they are usually repeats but may differ in a detail not shown here. Identical values can stand only once.

Columns and labels:
[1] = system: A549 lung cancer cell line; experiment: MTT cellular viability assay, A549; type: cell-based; settings: 72 hours, ± standard deviation
Protocol: (§1) Cell lines were obtained from American Type Culture Collection (ATCC, Manassas, VA). […] Caco-2 (ATCC: HTB-37) colorectal cancer was grown in EMEM with 20% FBS and 1% penicillin/streptomycin. All cell lines were incubated at 37°C in 5% CO2 with passaging every 4–7 days. Cell culture media and supplements were obtained from ATCC, Atlanta Biologicals (Flowery Branch, GA), Mediatech (Tewksbury, MA), Fisher Scientific (Waltham, MA), Gibco (Gaithersburg, MD) and Sigma-Aldrich.
(§2) The MTT (3-(4,5-dimethylthiazol-2-yl)-2,5-diphenyltetrazolium bromide) cellular viability assay was performed in all three cancer cell lines and the non-cancer cell line. Following a protocol adapted from, cells were seeded at 5,000 cells per well in 96-well plates and incubated at 37°C in 5% CO2 in F-12K Medium or EMEM with FBS supplementation and 1% penicillin/streptomycin for 24 hours. Then, wells were treated in replicates of six according to a concentration series (500, 50, 5, 0.5, 0.05 μM) of specific platinum complexes for 72 hours. A negative control (media only), positive control (Triton X-100) and series of blanks were simultaneously performed. The MTT assay was run for 2 hours, then well contents were rapidly evacuated out and all wells were treated with MTT solubilization solution [10% Triton X-100 in acidic (0.1N HCl) isopropanol] for 15 minutes before the plates were read using a BioTek Synergy HT microplate plate reader (570 nm and 690 nm absorbance wavelengths). Reagents, cell culture media and supplements were obtained from ATCC, Atlanta Biologicals, Mediatech, Fisher Scientific, Gibco and Sigma-Aldrich.
(§3) GraphPad Prism v6 (La Jolla, CA) was used for all statistical analysis. Nuclear fraction platinum uptake as a total percent of combined nuclear and cytosolic uptake was analyzed using a one-way ANOVA (Brown-Forsyth test; p ≤ 0.05). IC50 values were calculated in Prism using the sigmoidal, 4PL, x is log(concentration) analysis feature or were calculated from Prism derived values using the equation y = mx + b. MTT assay standard deviation values were calculated using ED50plus v1.0 online software. AEP threshold data were analyzed by two-way ANOVA (Dunnett’s multiple comparisons test; p ≤ 0.05) and hair cell quantification data by two-way ANOVA (Tukey’s multiple comparisons test; p ≤ 0.05). AEP temporary threshold shifts (TTS) were calculated by subtracting the mean vehicle threshold for each frequency from each treatment threshold. TTS data were averaged across frequencies for each treatment and were analyzed by one-way ANOVA (Tukey’s multiple comparisons test; p ≤ 0.05).

[2] = system: zebrafish hearing thresholds; experiment: Auditory evoked potential (AEP) testing in zebrafish inner ear model; type: in vivo, Danio rerio; settings: 25 mg/kg i.p.; for AEP hearing threshold, significance of pairwise comparison against cisplatin / AEP hearing threshold, significance of pairwise comparison against vehicle: 48 h
Protocol: (§4) Zebrafish (Danio rerio) were purchased from a commercial supplier (Segrest Farms, Gibsonton, FL) and maintained in the animal facility of Western Kentucky University according to a protocol approved by the Institutional Animal Care and Use Committee. All zebrafish used in this study were a mix of male and female adult animals at least 6 months of age and were maintained according to standard methods.
(§5) After injection, fish were returned to holding tanks for either 24 or 48 hours and then subjected to hearing tests followed by hair cell quantification analysis.
Auditory evoked potential (AEP) testing was performed on individual fish according to standard protocols. […] After harness placement was complete, three 27 gauge stainless steel electrodes (Rochester Electro-Medical, Inc., Lutz, FL) were inserted approximately 2 mm subdermally to record AEPs. A reference electrode was inserted into the medial dorsal surface of the head, a recording electrode directly over the brainstem and a ground electrode in the tail musculature. Sound stimuli (tone pips) were presented to each fish at 8 frequencies (100, 250, 400, 600, 800, 1000, 1500 and 3000 Hz) and AEP waveforms were collected using a TDT System III physiology apparatus (Tucker-Davis Technologies Inc., Alachua, FL) running SigGen and BioSig software. Auditory stimuli were passed through a P1000 power amplifier (Hafler, Port Coquitlam, BC) and presented with a University Sound UW-30 underwater speaker (Electro-Voice, Fairport, NY). Sound pressure levels were confirmed using a Type 10CT hydrophone (G.R.A.S., Holte, Denmark) placed adjacent to the mesh harness. Auditory thresholds were determined in 5 dB increments by visual inspection of AEP waveforms.
as §3

5'-GMP = experiment: Kinetic 5'-GMP assay (1H NMR, rate of reaction of platinum complex with 5'-GMP); type: biochemical; settings: D2O, pH 7, 25°C; for Rate constant for the reaction of 5'-GMP with the platinum(II) complex: excess platinum, fitted first order in each reactant
Protocol: The reaction of each platinum compound with 5'-GMP (Acros) was monitored using ^1H NMR spectroscopy to observe the disappearance of the H8 signal of the unreacted 5'-GMP at ≈8 ppm and the appearance of a product signal ≈0.5–1.0 ppm downfield of the unreacted 5'-GMP. The reaction was conducted with excess platinum compound present in each case. A 10 mM solution of 5'-GMP and a 10–20 mM solution of the platinum(II) compound were prepared separately in D2O. The pH (uncorrected for the effects of deuterium) of each solution was adjusted to 7, and the samples were equilibrated to 25°C in a water bath. Aliquots of the two solutions were combined and placed in an NMR tube; typically, the final concentrations of platinum was 5–18 mM and the concentration of 5'-GMP was 1 mM (except for the [Pt(dien)Cl]^+ reaction, where it was 0.5 mM). Samples were maintained at 25°C throughout the NMR experiment. The H8 resonances were integrated and the data was fitted to an equation that was first order in each reactant using DynaFit to determine rate constants. At least two runs were conducted for each platinum compound using fresh samples.

[3] = system: Caco-2 colorectal cancer cell line; experiment: MTT cellular viability assay, Caco2; type: cell-based; settings: 72 hours, ± standard deviation
Protocol: as §1, §2, §3

[4] = system: U-138 MG (HTB-16) glioblastoma cancer cell line; experiment: MTT cellular viability assay, HTB16; type: cell-based; settings: HTB16 (glioma), 72 hours, ± standard deviation
Protocol: as §1, §2, §3

[5] = system: IMR-90 lung fibroblast control cell line; experiment: MTT cellular viability assay, IMR90; type: cell-based; settings: IMR90 (fibroblast, non-cancer), 72 hours, ± standard deviation
Protocol: as §1, §2, §3

[6] = system: zebrafish saccule hair cells; experiment: Hair cell quantification, saccule; type: in vivo, Danio rerio; settings: 5, 25, 50, 75% regions, 25 mg/kg i.p., 48 hours
Protocol: as §4, §5
Hair cell counts were performed from specific regions of the zebrafish saccule and utricle using established procedures. […] Prior to dissection, heads were rinsed three times for 10 minutes each at room temperature in phosphate buffer (pH 7.4, LabChem, Pittsburgh, PA) and the inner ear epithelia (saccule and utricle) were then carefully dissected out and trimmed. […] Tissue samples were then placed on glass slides and nuclei were labelled with Prolong Gold antifade reagent (4’,6-diamidino-2-phenylindole [DAPI], Life Technologies, Carlsbad, CA) and a cover-slip was placed over the samples for microscopy.
Saccule and utricle samples were viewed through the FITC filter of a Zeiss Axioplan2 epifluorescence microscope (Carl Zeiss, Jena, Germany) at 20X magnification and were then photographed using an AxioCam MRm camera. Cell counts were made from four regions of the saccule (5%, 25%, 50%, 75%) along the rostral-caudal length of the organ by placing a 50 μm x 50 μm box at each location and using the microscope cell counter feature. In the utricular samples, cell counts were made from three equidistant 50 μm x 50 μm boxes in both the extrastriolar and striolar regions.
as §3

Structure (SMILES): [NH3+][Pt-2]([NH3+])([Cl])[n+]1ccccc1 (stereo not shown) [Pyriplatin, pyriplatin]
- IC50 [1]: 89.28 ± 0.46 µM
- mean (± S.E.) temporary threshold shift (TTS), averaged across frequencies ([2]; 48 hours, vehicle threshold subtracted): 6 dB and 6.2 ± 2.1 dB
- AEP hearing threshold, significance of pairwise comparison against cisplatin ([2]; 100 Hz): ns (ns, p > 0.05)
- AEP hearing threshold, significance of pairwise comparison against vehicle ([2]; 100 Hz): * (* p ≤ 0.05)
- AEP hearing threshold, significance of pairwise comparison against cisplatin ([2]; 250 Hz): ns (ns, p > 0.05)
- AEP hearing threshold, significance of pairwise comparison against vehicle ([2]; 250 Hz): ns (ns, p > 0.05)
- AEP hearing threshold, significance of pairwise comparison against cisplatin ([2]; 400 Hz): ns (ns, p > 0.05)
- AEP hearing threshold, significance of pairwise comparison against vehicle ([2]; 400 Hz): ns (ns, p > 0.05)
- AEP hearing threshold, significance of pairwise comparison against cisplatin ([2]; 600 Hz): ns (ns, p > 0.05)
- AEP hearing threshold, significance of pairwise comparison against vehicle ([2]; 600 Hz): ns (ns, p > 0.05)
- AEP hearing threshold, significance of pairwise comparison against cisplatin ([2]; 800 Hz): ns (ns, p > 0.05)
- AEP hearing threshold, significance of pairwise comparison against vehicle ([2]; 800 Hz): ns (ns, p > 0.05)
- AEP hearing threshold, significance of pairwise comparison against cisplatin ([2]; 1000 Hz): ns (ns, p > 0.05)
- AEP hearing threshold, significance of pairwise comparison against vehicle ([2]; 1000 Hz): ns (ns, p > 0.05)
- AEP hearing threshold, significance of pairwise comparison against cisplatin ([2]; 1500 Hz): * (* p ≤ 0.05)
- AEP hearing threshold, significance of pairwise comparison against vehicle ([2]; 1500 Hz): ns (ns, p > 0.05)
- AEP hearing threshold, significance of pairwise comparison against cisplatin ([2]; 3000 Hz): ns (ns, p > 0.05)
- AEP hearing threshold, significance of pairwise comparison against vehicle ([2]; 3000 Hz): ns (ns, p > 0.05)
- Relative rate (rate constant divided by the rate constant for [Pt(dien)Cl]^+) (5'-GMP): 0.073
- Rate constant for the reaction of 5'-GMP with the platinum(II) complex (5'-GMP): 2.9 (+/- 0.7) x 10^−2 M^-1s^-1
- Rate constant for the reaction of 5'-GMP with the platinum(II) complex (5'-GMP; listed as pyriplatin): 2.9 ± 0.7 x 10^−2 M^-1s^-1
- IC50 [3]: 20.9 ± 0.69 µM
- IC50 [4]: 66.3 ± 0.74 µM
- IC50 [5]: 16.1 ± 1.13 µM
- effect on hair cell density in four regions of the saccule compared to vehicle [6]: no hair cell reduction
